Measured values from patent publication US20250041461A1, “[177LU] LUTETIUM-PSMA I&T COMPOSITION AND DOSIMETRY, KIT, METHOD OF MAKING, AND METHOD OF USING THEREOF” (Curium US LLC, priority 2023, published 2025).
Where “and” joins values, the source holds several entries; their conditions need not be identical. Identical values can stand only once.

Assay: Dosimetry sub-study, first 12 patients, cycle 1 (SPECT/CT, TIAC, OLINDA 2.2.3)
Assay type: in vivo, human
Details: for dose estimate, Mean: Eclipse; for Extrapolation of Absorbed Dose to 6 Cycles Assuming 7.4 GBq per cycle: kidneys; for Kidneys Absorbed Dose Assuming 7.4 GBq per cycle: one cycle; for Effective Dose Cycle 1: whole body
Method: Twelve subjects were administered a target activity of 7.4 GBq (mean 7.56±0.17 GBq) of [^177Lu]Lu-PSMA-I&T. Following the infusion, subjects underwent single photon emission computed tomography (SPECT)/computed tomography (CT) imaging at four timepoints (4 hours, 24 hours, 48 hours, and 168 hours). Image data was analyzed to compute time integrated activity coefficients (TIAC) in each organ of interest defined a priori in the independent review charter and in organs showing appreciable and meaningful [^177Lu]Lu-PSMA I&T activity. Segmented organs included kidneys, bladder, liver, lacrimal glands, salivary glands, intestine, lumbar vertebrae L2-L4, and whole body. To compute subject-specific organ doses, organ-level TIAC data were entered into Organ Level Internal Dose Assessment (OLINDA 2.2.3) and resulting organ doses for each target organ and whole-body effective dose were collated and averaged.
Patients received SPECT/CT imaging (anatomical coverage included the salivary gland in most of the patients and extended through the pelvis) following the injection of 7.4 (±10%) GBq of [^177Lu]Lu-PSMA-I&T (detailed injected doses are reported in Table 36). All patients completed the first treatment cycle, and the acquisition of images was carried out. To note, for patient 37-016 the 168 hours SPECT/CT timepoint wasn't acquired, whereas patient 12-004 48 hours scan was presenting unrealistically high values, and the 48 hours scan was therefore excluded from further analysis.
The imaging data was analyzed using Invicro's VivoQuant software, a validated software used in a 21 CFR § 11-compliant workflow. The general quantification approach was based on the principles detailed in the Medical Internal Radiation Dose (MIRD) Pamphlet No. 16, No 23, and No 26, as appropriate.
Each SPECT image was co-registered with its corresponding CT. Image calibration was performed to convert the counts measured on the SPECT images to activity (Bq). The same SPECT/CT system was used in each patient for the entirety of the dosimetry study.
Regions of interest (ROI) (kidneys, bladder, liver, lumbar vertebrae L2-L4, lacrimal glands, salivary glands (parotid and submandibular glands), and whole body) were drawn on each dataset by a trained image analyst. […] Lumbar vertebrae L2-L4 was delineated for all patients on the CT images to derive red marrow doses.^4 For kidneys, a ROI was drawn on the SPECT image encompassing all the uptake seen in the kidneys. Similarly for lacrimal glands, all the uptake observed on the SPECT image at the lacrimal glands' location was segmented. [^177Lu]Lu-PSMA-I&T distribution in a patient imaged over time is represented in FIG. 16.
Time-activity curves of the activity in each ROI as a function of time were plotted. These curves were normalized by the known injected activity to arrive at units of fraction of injected activity. Calculations of time-integrated activity coefficient (TIAC, in units of hours) were performed for each region of interest listed above.
Clearance of the tracer was derived from a data-appropriate fit of each organ time activity curve (TAC). Depending on the shape of the TAC, the data was fitted with the sum of one, two or three exponentials or using a rise and fall model. TIACs were calculated through analytical integration of the curve fit extrapolated to infinite. […] The remainder activity was determined by subtracting the cumulative organ TIACs from the whole body TIAC.
Organ TIACs were inputted into Organ Level Internal Dose Assessment, OLINDA 2.2.3 for the computation of organ and whole-body absorbed doses and effective dose (computed using ICRP-103 weighing factors). ICRP-89 derived male phantom was used for dose estimation. Organs and body weights as defined by ICRP-89 were scaled based on height and mass using the patient effective mass. Kidney volumes were measured for each patient on the CT images and used for the kidneys mass of the ICRP-89 phantom assuming a density of 1 g/ml. […]

[1] = individual subjects, listed as [^177Lu]Lu-PSMA-I&T

## O=C([O-])CC[C@H](NC(=O)N[C@@H](CCCCNC(=O)CCCCCCC(=O)NCCCC[C@@H](NC(=O)[C@@H](Cc1ccccc1)NC(=O)[C@@H](Cc1ccc(O)c(I)c1)NC(=O)CC[C@H](C(=O)[O-])N1CCN(CC(=O)[O-])CCN(CC(=O)[O-])CCN(CC(=O)[O-])CC1)C(=O)[O-])C(=O)[O-])C(=O)[O-].[177Lu+3].[H+].[H+].[H+].[H+].[H+] [^177Lu-PSMA I&T, (3S,7S,26R,29R,32R,37R)-29-benzyl-32-(4-hydroxy-3-iodobenzyl)-5,13,20,28,31,34-hexaoxo-37-(4,7,10-tris(carboxymethyl)-1,4,7,10-tetraazacyclododecan-1-yl)-4,6,12,21,27,30,33-heptaazaheptatriacontane-1,3,7,26,37-pentacarboxylic acid; lutetium-177 (III)]
12 patients, cycle 1
  Mean whole body effective dose: 0.095±0.048 mSv/MBq
  Whole-body time integrated activity coefficient, mean: 24.1 ± 18.7 h
  absorbed dose, kidneys: 0.43±0.18 Gy/GBq
  absorbed dose, lacrimal glands: 0.67±0.33 Gy/GBq
  absorbed dose, left colon: 0.54±0.42 Gy/GBq
  absorbed dose, rectum: 0.52±0.40 Gy/GBq
  absorbed dose, red marrow: 0.08±0.15 Gy/GBq
  absorbed dose, right colon: 0.30±0.23 Gy/GBq
  absorbed dose, salivary glands: 0.13±0.08 Gy/GBq
  absorbed dose, urinary bladder wall: 0.38±0.03 Gy/GBq
12 patients, cycle 1, 7.4 GBq
  Whole-body time integrated activity coefficients, mean: 24.1 ± 18.7 h
12 patients, 7.4 GBq per cycle
  estimated absorbed dose for the kidneys after 6 cycles, max: 35.83 Gy
  estimated absorbed dose for the kidneys after 6 cycles, min: 9.9 Gy
12 patients, 7.4 GBq per cycle, listed as [^177Lu]Lu-PSMA-I&T
  estimated mean absorbed dose for the kidneys after 6 cycles: 19.3 Gy and 19.3±8.0 Gy
Adrenals, cycle 1, 12 patients
  Absorbed Dose, Mean: 0.03 Gy/GBq
Brain, cycle 1, 12 patients
  Absorbed Dose, Mean: 0.02 Gy/GBq
Esophagus, cycle 1, 12 patients
  Absorbed Dose, Mean: 0.02 Gy/GBq
Eyes, cycle 1, 12 patients
  Absorbed Dose, Mean: 0.02 Gy/GBq
Gallbladder Wall, cycle 1, 12 patients
  Absorbed Dose, Mean: 0.02 Gy/GBq
Heart Wall
  dose estimate, Mean: 0.02 Gy/GBq
Heart Wall, cycle 1, 12 patients
  Absorbed Dose, Mean: 0.02 Gy/GBq
Kidneys
  dose estimate, Mean: 0.43 Gy/GBq
Kidneys, cycle 1, 12 patients
  Absorbed Dose, Mean: 0.43 Gy/GBq
Lacrimal gland
  dose estimate, Mean: 0.67 Gy/GBq
Lacrimal glands (OLINDA sphere model), cycle 1
  Absorbed Dose, Mean: 0.67 Gy/GBq
Left colon
  dose estimate, Mean: 0.54 Gy/GBq
Left colon, cycle 1, 12 patients
  Absorbed Dose, Mean: 0.54 Gy/GBq
Liver
  dose estimate, Mean: 0.04 Gy/GBq
Liver, cycle 1, 12 patients
  Absorbed Dose, Mean: 0.04 Gy/GBq
Lungs, cycle 1, 12 patients
  Absorbed Dose, Mean: 0.02 Gy/GBq
Osteogenic Cells, cycle 1, 12 patients
  Absorbed Dose, Mean: 0.05 Gy/GBq
Pancreas, cycle 1, 12 patients
  Absorbed Dose, Mean: 0.02 Gy/GBq
Prostate, cycle 1, 12 patients
  Absorbed Dose, Mean: 0.02 Gy/GBq
Rectum
  dose estimate, Mean: 0.52 Gy/GBq
Rectum, cycle 1, 12 patients
  Absorbed Dose, Mean: 0.52 Gy/GBq
Red Marrow
  dose estimate, Mean: 0.08 Gy/GBq
Red Marrow, cycle 1, 12 patients
  Absorbed Dose, Mean: 0.08 Gy/GBq
Right colon
  dose estimate, Mean: 0.30 Gy/GBq
Right colon, cycle 1, 12 patients
  Absorbed Dose, Mean: 0.30 Gy/GBq
Salivary Glands, cycle 1, 12 patients
  Absorbed Dose, Mean: 0.13 Gy/GBq
Salivary glands
  dose estimate, Mean: 0.13 Gy/GBq
Small Intestine, cycle 1, 12 patients
  Absorbed Dose, Mean: 0.06 Gy/GBq
Spleen
  dose estimate, Mean: 0.03 Gy/GBq
Spleen, cycle 1, 12 patients
  Absorbed Dose, Mean: 0.03 Gy/GBq
Stomach Wall, cycle 1, 12 patients
  Absorbed Dose, Mean: 0.02 Gy/GBq
Testes, cycle 1, 12 patients
  Absorbed Dose, Mean: 0.02 Gy/GBq
Thymus, cycle 1, 12 patients
  Absorbed Dose, Mean: 0.02 Gy/GBq
Thyroid
  dose estimate, Mean: 0.02 Gy/GBq
Thyroid, cycle 1, 12 patients
  Absorbed Dose, Mean: 0.02 Gy/GBq
Total Body, cycle 1, 12 patients
  Absorbed Dose, Mean: 0.03 Gy/GBq
Urinary Bladder Wall, cycle 1, 12 patients
  Absorbed Dose, Mean: 0.38 Gy/GBq
Urinary bladder wall
  dose estimate, Mean: 0.38 Gy/GBq
Cycle 1, Mean of 12 subjects
  Whole Body TIAC: 24.1 h
Cycle 1, Mean of 12 subjects (Table 41)
  Kidneys Absorbed Dose: 0.43 Gy/GBq
Cycle 1, individual subjects (Table 41), listed as [^177Lu]Lu-PSMA-I&T
  Kidneys Absorbed Dose: 0.64 Gy/GBq and 0.34 Gy/GBq and 0.81 Gy/GBq and 0.29 Gy/GBq and 0.27 Gy/GBq (2×) and 0.22 Gy/GBq and 0.48 Gy/GBq and 0.32 Gy/GBq and 0.54 Gy/GBq and 0.41 Gy/GBq and 0.57 Gy/GBq
Cycle 1, individual subjects, listed as [^177Lu]Lu-PSMA-I&T
  Whole Body TIAC: 8.2 h and 17.2 h and 41.7 h and 14.4 h and 69.7 h and 43.7 h and 11.1 h and 12.6 h and 19.7 h and 14.2 h and 8.5 h and 27.6 h
Cycle 1, individual subjects, listed as [^177Lu]Lu-PSMA-I&T, absorbed dose per injected activity, Gy/GBq
  Kidneys Absorbed Dose: 0.27 Gy/GBq (2×) and 0.22 Gy/GBq and 0.48 Gy/GBq and 0.32 Gy/GBq and 0.54 Gy/GBq and 0.41 Gy/GBq and 0.57 Gy/GBq and 0.64 Gy/GBq and 0.34 Gy/GBq and 0.81 Gy/GBq and 0.29 Gy/GBq
Cycle 1, individual subjects, listed as [^177Lu]Lu-PSMA-I&T, total absorbed dose, Gy
  Kidneys Absorbed Dose: 2.00 Gy and 2.36 Gy and 3.99 Gy and 3.08 Gy and 4.48 Gy and 2.26 Gy
Mean of 12 subjects
  Extrapolation of Absorbed Dose to 6 Cycles Assuming 7.4 GBq per cycle: 19.3 Gy
  Kidneys Absorbed Dose Assuming 7.4 GBq per cycle: 3.2 Gy
  Effective Dose Cycle 1: 0.09 mSv/MBq
[1]
  Extrapolation of Absorbed Dose to 6 Cycles Assuming 7.4 GBq per cycle: 28.5 Gy and 15.0 Gy and 35.8 Gy and 13.0 Gy and 11.8 Gy and 9.9 Gy and 21.3 Gy and 12.0 Gy and 14.0 Gy and 23.8 Gy and 18.0 Gy and 25.1 Gy
  Kidneys Absorbed Dose Assuming 7.4 GBq per cycle: 4.8 Gy and 2.5 Gy and 6.0 Gy and 2.2 Gy and 2.0 Gy (2×) and 1.7 Gy and 3.6 Gy and 2.3 Gy and 4.0 Gy and 3.0 Gy and 4.2 Gy
  Effective Dose Cycle 1: 0.03 mSv/MBq (2×) and 0.09 mSv/MBq and 0.12 mSv/MBq and 0.11 mSv/MBq (2×) and 0.16 mSv/MBq and 0.19 mSv/MBq and 0.07 mSv/MBq (2×) and 0.06 mSv/MBq and 0.08 mSv/MBq
